According to patent US9708359B2, “Pyrrolopyrimidine nucleosides and analogs thereof” (Chimerix, Inc., priority 2015, dated 2017):
Read-outs that look alike come from different tables or passages of the source.

Columns and labels:
HSV-2 = assay: Plaque-reduction assay for HSV-2; format: cell-based, herpes simplex virus 2; details: Human alphaherpesvirus 2; HSV-2, HFF cells
Procedure: Plaque-Reduction Assays for HSV-1, HSV-2, VZV and HCMV:
Monolayers of cells were prepared in six-well plates and incubated at to allow the cells to reach confluency. Media was then aspirated from the wells and of virus was added to each of three wells to yield 20-30 plaques in each well. The virus was allowed to adsorb to the cells for 1 h and the plates were rocked gently every 15 min to redistribute the media. Compounds were diluted in maintenance cell culture media consisting of MEM with Earl's salts supplemented with 2% FBS, L-glutamine, penicillin, and gentamycin. Solutions were added to duplicate wells and the plates were incubated for various times, depending on the virus used. The plaque-reduction assay with HSV-1 strain F was performed in a similar manner but with Vero cells infected one day after plating. For HSV-1 and -2, the monolayers were stained with 1% crystal violet in 20% methanol and the unbound dye removed by washing with dH2O. For assays with HCMV and VZV, the cell monolayer was stained with 1% Neutral Red solution for 4 h then the stain was aspirated and the cells were washed with PBS. For all assays, plaques were enumerated using a stereomicroscope and the concentration of compound that reduced plaque formation by 50% (EC50) was interpolated from the experimental data. […]

[1] = Cytotoxicity in lymphocyte assays, Akata cells; format: cell-based; details: human, parallel to EBV assay
Procedure: Every antiviral assay included a parallel cytotoxicity assay with the same cells used for each virus, the same cell number, the same drug concentrations, and the same incubation times to provide the same drug exposure. To ensure that the cytotoxicity of all compounds could be compared directly, a standard neutral red uptake cytotoxicity assay for all compounds in confluent HFF cells with a 7 d incubation period was performed.
Cytotoxicity in Lymphocyte Assays:
Cell viability in all assays with lymphocytes was assessed with a luminescent Cell Viability Assay. Briefly, assay plates were incubated at ambient temperature for 30 min then luminescent reagent was added to each well and the plates were mixed to lyse the cells. Plates were then incubated for at ambient temperature and the luminescence was quantified on a luminometer. Standard methods were used to calculate drug concentrations that inhibited the proliferation of cells by 50% (CC50).
Cell viability in all assays with lymphocytes was assessed with the CellTiter-Glo Luminescent Cell Viability Assay (Promega). […] Plates were then incubated for an additional 10 min at ambient temperature and the luminescence was quantified on a luminometer. […]

mouse norovirus = assay: Mouse Norovirus (MNV) assay in RAW cells
POV-3 = assay: microbe, parasite or virus in culture; format: cell-based, Poliovirus; details: Enterovirus C, Vero 76
RAW cells = assay: Conversion of Compound 1 to Triphosphate in RAW Cells
in vitro = details: dog
[2] = RAW cells incubated with 0.5 μM Compound 1 for 48 hours
[3] = RAW cells incubated with 1 μM Compound 1 for 48 hours
[4] = RAW cells incubated with 5 μM Compound 1 for 48 hours
[5] = RAW cells incubated with 10 μM Compound 1 for 48 hours

Compound: Cc1nc(N)c2c(C(N)=O)cn([C@@H]3O[C@H](CO)[C@@H](O)[C@H]3O)c2n1 [Compound 1, 4-amino-7-((2R,3R,4S,5R)-3,4-dihydroxy-5-(hydroxymethyl)tetrahydrofuran-2-yl)-2-methyl-7H-pyrrolo[2,3-d]pyrimidine-5-carboxamide]
- EC50 (HSV-2): > 60000 nM
- CC50 [1]: > 60000 nM
- EC50 (mouse norovirus; Norovirus, in Mus musculus, read-out: EC50 value against mouse norovirus, in vitro, unit inferred): ~2100 nM
- EC50 (mouse norovirus; Norovirus, in Mus musculus, read-out: MNV Mean EC50, RAW cells): 2000 nM
- EC50 (mouse norovirus; murine norovirus, Table 7): 1700 to 3600 nM
- EC50 (POV-3): > 100000 nM
- Concentration (ng/1 × 10^6 cells) (RAW cells; [2]): 0.17 ng/1 × 10^6 cells
- Concentration (pmol/1 × 10^6 cells) (RAW cells; [2]): 0.53 pmol/1 × 10^6 cells
- Concentration (ng/1 × 10^6 cells) (RAW cells; [3]): 0.13 ng/1 × 10^6 cells
- Concentration (pmol/1 × 10^6 cells) (RAW cells; [3]): 0.40 pmol/1 × 10^6 cells
- Concentration (ng/1 × 10^6 cells) (RAW cells; [4]): 0.65 ng/1 × 10^6 cells
- Concentration (pmol/1 × 10^6 cells) (RAW cells; [4]): 2.01 pmol/1 × 10^6 cells
- Concentration (ng/1 × 10^6 cells) (RAW cells; [5]): 1.02 ng/1 × 10^6 cells
- Concentration (pmol/1 × 10^6 cells) (RAW cells; [5]): 3.15 pmol/1 × 10^6 cells
- CC50 (in vitro): > 100000 nM
